Tested on: shaved mice
Assay: Hair grow-promoting effect in shaved mice (method of Kubo et al.), hair grow score
Assay type: in vivo, ddy male mice
Details: 0.2 ml of 0.2 % solution in 75 % ethanol applied to shaved back once a day, score 0-4, 15 mice
Experimental: According to the method of Kubo et al. (Yakugaku Zasshi 108 (10) P971-978 (1988)), an experiment was conducted using six weeks old ddy male mice. Depilatory cream was applied to the back of mice, and after 8 minutes, wiped off with absorbent cotton soaked with hot water at 40°C to remove hair at 4 to 5 cm². The next day, those mice with no injury and undepilated hair were selected and used as shaved mice. Each experimental group consisted of 15 mice.
Each 0.2 ml of a solution to be tested and a control solution were uniformly applied to the shaved part of mice with a brush once a day for 18 days.
Evaluation of the hair grow-promoting effect was conducted by evaluating a hair grow score at two day intervals for 18 days and testing a significance difference with Willcoxon Rank sum test. The following hair grow score standards were employed: 0: Completely no growth of hair is observed with naked eye 1: Recovery up to 25 % of normal state 2: Recovery up to 50 % of normal state 3: Recovery up to 75 % of normal state 4: Recovery up to nearly normal state and each standard score were further subdivided into three stages and hair grow score was obtained for each mouse.
The samples used for testing for effect were as follows: Control: 75 % etanol solution Preparation of the present invention: 0.2 % 6-[4-(1-cyclohexyl-1,2,3,4-tetrazol-5-yl)butoxy]-3,4-dihydrocarbostyril in 75 % ethanol solution The results are shown in Table 1.

O=C1CCc2cc(OCCCCc3nnnn3C3CCCCC3)ccc2N1 [Prep. of invention, 6-[4-(1-cyclohexyl-1,2,3,4-tetrazol-5-yl)butoxy]-3,4-dihydrocarbostyril]
mean hair grow score ± S.E. (day 8 of treatment): 0.12±0.07
mean hair grow score ± S.E. (day 10 of treatment): 0.17±0.07
mean hair grow score ± S.E. (day 12 of treatment): 0.72±0.17
mean hair grow score ± S.E. (day 14 of treatment): 1.45±0.23
mean hair grow score ± S.E. (day 16 of treatment): 2.25±0.27
mean hair grow score ± S.E. (day 18 of treatment): 2.58±0.28

— patent EP0463173B1, “HAIR TONIC AND DRESSING COMPOSITION” (OTSUKA PHARMACEUTICAL CO., LTD., priority 1990, dated 1991)
